Like-named read-outs stand apart in the source and are kept apart here.
Legend:
Parameters in all cases: species or system Hepatitis C virus
[1] = system: HCV replicon 2B; assay: Cell-based HCV replicon assay (Replicon Assay A), replicon 2B; conditions: replicon RNA by real time PCR, day 3
Outline: (§1)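 Replicon cells were seeded at 2000/well with compound, 10 serial dilutions starting at 333.3 nM to 1.667 nM, in 0.5% DMSO and 5% FBS, then harvested on day 3. Replicon RNA was measured by multiplex TaqMan RT-PCR with cyclophilin as endogenous control. EC50 is the concentration raising Ct by 1 over projected baseline.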

[2] = system: HCV replicon 1A; assay: Cell-based HCV replicon assay (Replicon Assay A), replicon 1A; conditions: replicon RNA by real time PCR, day 3
Outline: as §1

[3] = system: HCV replicon 1A Y93H; assay: Cell-based HCV replicon assay (Replicon Assay A), replicon 1AY93H; conditions: replicon RNA by real time PCR, day 3
Outline: as §1

[4] = system: HCV replicon 1B; assay: Cell-based HCV replicon assay (Replicon Assay B), replicon 1B; conditions: replicon RNA by real-time PCR, 3 days
Experimental: In an alternate assay (“Replicon Assay B”), 1000 cells were seeded per well in a 384-well collagen coated black plate from Greiner bio-one (Cat #781946) in 5% FBS. Inhibitors of this invention were added at 24 h post-seeding, and the plates were incubated for 3 days. Cells were subsequently lysed with Qiagen lysis buffer (Cat #1062731) to extract the RNA. HCV replicon RNA level was measured by real-time PCR using the RNA-to-CT kit from Applied Biosystem (Cat #4392656) and genotype-specific primers and probes. The amplicon was located within NS5B. […] (SEQ. ID NO. 2); the probe sequence was FAM-labeled […] (SEQ. ID NO. 3).
The real-time RT-PCR reactions were run on ABI PRISM 7900HT or Viia7 Sequence Detection System using the following program: 48° C. for 30 minutes, 95° C. for 10 minutes, 40 cycles of 95° C. for 15 sec, 60° C. for 1 minutes.
EC50 data for replicons 1A, 1AY93H and 2B were obtained using Replicon Assay A and EC50 data for replicon 1B was obtained using Replicon Assay B.

[5] = read-out: EC50 replicon 2B, Replicon Assay A
[6] = read-out: EC50 replicon 1A Y93H, Replicon Assay A
[7] = Hepatitis C virus, 72 h, read-out: EC50 replicon 2B, Replicon Assay A
[8] = Hepatitis C virus, 72 h, read-out: EC50 replicon 1A Y93H, Replicon Assay A

| SMILES | EC50 [1, 5] | EC50 [2] | EC50 [3, 6] | EC50 ([4]; Hepatitis C virus, 72 h) | EC50 ([2]; Hepatitis C virus, 72 h) | EC50 [1, 7] | EC50 [3, 8] | EC50 [4] |
| --- | --- | --- | --- | --- | --- | --- | --- | --- |
| COC(=O)N[C@H](C(=O)N1CCC[C@H]1c1ncc(-c2cc(F)c3c(c2)OC(c2ccc4c(c2)OCCC4C)n2c-3cc3cc(-c4cnc([C@@H]5CCCN5C(=O)[C@@H](NC(=O)OC)C(C)C)[nH]4)ccc32)[nH]1)C(C)C (single isomer, unassigned) [Compound 8] | 41 pM | 2.1 pM | 38 pM | 1.1 pM | – | – | – | – |
| COC(=O)N[C@H](C(=O)N1CCC[C@H]1c1ncc(-c2ccc3c(c2)cc2n3C(c3ccc4c(c3)OCCC4)Oc3cc(-c4cnc([C@@H]5CCCN5C(=O)[C@@H](NC(=O)OC)C5CCOCC5)[nH]4)cc(F)c3-2)[nH]1)C(C)C (single isomer, unassigned) [Compound 33] | 114 pM | – | 598 pM | 2.1 pM | 1.8 pM | – | – | – |
| COC(=O)N[C@H](C(=O)N1CCC[C@H]1c1ncc(-c2cc(F)c3c(c2)OC(c2ccc4c(c2)CCCO4)n2c-3cc3cc(-c4cnc([C@@H]5CCCN5C(=O)[C@@H](NC(=O)OC)C5CCOCC5)[nH]4)ccc32)[nH]1)C(C)C (single isomer, unassigned) [Compound 35] | – | – | 61 pM | 1.2 pM | 3.4 pM | 258 pM | – | – |
| COC(=O)NC(C(=O)N1[C@@H]2C[C@@H]2C[C@H]1c1ncc(-c2ccc3c(c2)cc2n3C(c3ccc4c(c3)CCCO4)Oc3cc(-c4cnc([C@@H]5CCCN5C(=O)[C@@H](NC(=O)OC)C(C)C)[nH]4)cc(F)c3-2)[nH]1)C1C[C@@H](C)O[C@@H](C)C1 (single isomer, unassigned) [Compound 65] | 935 pM | – | 43 pM | 1.8 pM | 2.9 pM | – | – | – |
| COC(=O)NC(C(=O)N1CCC[C@H]1c1ncc(-c2ccc3c(c2)cc2n3C(c3ccc4c(c3)OC(C)CC4)Oc3cc(-c4cnc([C@@H]5CCCN5C(=O)[C@@H](NC(=O)OC)C(C)C)[nH]4)cc(F)c3-2)[nH]1)C1CCOC(C)(C)C1 (single isomer, unassigned) [Compound 63] | 16 pM | 2.6 pM | 32 pM | 2 pM | – | – | – | – |
| COC(=O)N[C@H](C(=O)N1CCC[C@H]1c1ncc(-c2cc(F)c3c(c2)OC(c2ccc4c(c2)OCCC4)n2c-3c(F)c3cc(-c4cnc([C@@H]5CCCN5C(=O)[C@@H](NC(=O)OC)C5CCOCC5)[nH]4)ccc32)[nH]1)C(C)C (single isomer, unassigned) [Compound 92] | 6 pM | 1.5 pM | 6 pM | 2.4 pM | – | – | – | – |
| COC(=O)NC(C(=O)N1[C@@H]2C[C@@H]2C[C@H]1c1ncc(-c2ccc3c(c2)cc2n3C(c3ccc4c(c3)OCCC4)Oc3cc(-c4cnc([C@@H]5CCCN5C(=O)[C@@H](NC(=O)OC)C(C)C)[nH]4)cc(F)c3-2)[nH]1)C1CCOC(C)(C)C1 (single isomer, unassigned) [Compound 69] | – | – | – | 3.5 pM | 3.2 pM | 8 pM | 5 pM | – |
| COC(=O)N[C@H](C(=O)N1CCC[C@H]1c1ncc(-c2cc(F)c3c(c2)OC(c2ccc4c(c2)OC(C)(C)C4)n2c-3cc3cc(-c4cnc([C@@H]5CCCN5C(=O)[C@@H](NC(=O)OC)C(C)C)[nH]4)ccc32)[nH]1)C(C)C (single isomer, unassigned) [Compound 28] | 105 pM | 1.7 pM | 32 pM | 2.1 pM | – | – | – | – |
| COC(=O)N[C@H](C(=O)N1CCC[C@H]1c1ncc(-c2cc(F)c3c(c2)OC(c2ccc4c(c2)OC(C)CC4)n2c-3cc3cc(-c4cnc([C@@H]5CCCN5C(=O)[C@@H](NC(=O)OC)C(C)C)[nH]4)ccc32)[nH]1)C(C)C (single isomer, unassigned) [Compound 13] | 144 pM | 2.3 pM | 106 pM | 3.2 pM | – | – | – | – |
| COC(=O)NC(C(=O)N1CCC[C@H]1c1ncc(-c2ccc3c(c2)cc2n3C(c3ccc4c(c3)OCCC4)Oc3cc(-c4cnc([C@@H]5CCCN5C(=O)[C@@H](NC(=O)OC)C(C)C)[nH]4)cc(F)c3-2)[nH]1)C1C[C@@H](C)O[C@H](C)C1 (single isomer, unassigned) [Compound 78] | 4 pM | 2.2 pM | 9 pM | 2.6 pM | – | – | – | – |
| COC(=O)NC(C(=O)N1CCC[C@H]1c1ncc(-c2ccc3c(c2)cc2n3C(c3ccc4c(c3)OCCC4)Oc3cc(-c4cnc([C@@H]5CCCN5C(=O)[C@@H](NC(=O)OC)C(C)C)[nH]4)cc(F)c3-2)[nH]1)C1C[C@@H](C)O[C@@H](C)C1 (single isomer, unassigned) [Compound 76] | 4 pM | 2.5 pM | 12 pM | 3.2 pM | – | – | – | – |
| COC(=O)NC(C(=O)N1CCC[C@H]1c1ncc(-c2ccc3c(c2)cc2n3C(c3ccc4c(c3)OCCC4)Oc3cc(-c4cnc([C@@H]5CCCN5C(=O)[C@@H](NC(=O)OC)C(C)C)[nH]4)cc(F)c3-2)[nH]1)C(C)(C)F (single isomer, unassigned) [Compound 43] | 81 pM | – | – | 2.3 pM | 2.2 pM | – | 75 pM | – |
| COC(=O)N[C@H](C(=O)N1CCC[C@H]1c1ncc(-c2cc(F)c3c(c2)OC(c2ccc4c(c2)OCCC4(F)F)n2c-3cc3cc(-c4cnc([C@@H]5CCCN5C(=O)[C@@H](NC(=O)OC)C(C)C)[nH]4)ccc32)[nH]1)C(C)C (single isomer, unassigned) [Compound 20] | 40 pM | 1.3 pM | 67 pM | 1.4 pM | – | – | – | – |
| COC(=O)NC(C(=O)N1CCC[C@H]1c1ncc(-c2ccc3c(c2)cc2n3C(c3ccc4c(c3)OCCC4)Oc3cc(-c4cnc([C@@H]5CCCN5C(=O)[C@@H](NC(=O)OC)C(C)C)[nH]4)cc(F)c3-2)[nH]1)C1CCOC(C)(C)C1 (single isomer, unassigned) [Compound 79] | – | – | 6 pM | 2.7 pM | 1.7 pM | 7 pM | – | – |
| COC(=O)NC(C(=O)N1CCC[C@H]1c1ncc(-c2ccc3c(c2)cc2n3C(c3ccc4c(c3)OC(C)CC4)Oc3cc(-c4cnc([C@@H]5CCCN5C(=O)[C@@H](NC(=O)OC)C(C)C)[nH]4)cc(F)c3-2)[nH]1)C1C[C@@H](C)O[C@@H](C)C1 (single isomer, unassigned) [Compound 60] | 25 pM | 3 pM | 20 pM | – | – | – | – | 3.1 pM |
| COC(=O)N[C@H](C(=O)N1CCC[C@H]1c1ncc(-c2ccc3c(c2)OC(c2ccc4c(c2)OCCC4)n2c-3cc3cc(-c4cnc([C@@H]5C[C@H]6C[C@H]6N5C(=O)[C@@H](NC(=O)OC)C(C)C)[nH]4)ccc32)[nH]1)C(C)C (single isomer, unassigned) [Compound 50] | 36 pM | 1.4 pM | 60 pM | 1.4 pM | – | – | – | – |
| COC(=O)N[C@H](C(=O)N1CCC[C@H]1c1ncc(-c2cc(F)c3c(c2)OC(c2ccc4c(c2)OCCC4C)n2c-3cc3cc(-c4cnc([C@@H]5CCCN5C(=O)[C@@H](NC(=O)OC)C(C)C)[nH]4)ccc32)[nH]1)C(C)C (single isomer, unassigned) [Compound 10] | 41 pM | 2.4 pM | 39 pM | – | – | – | – | 1.2 pM |
| CCN(CC)[C@@H](C(=O)N1[C@@H]2C[C@@H]2C[C@H]1c1ncc(-c2ccc3c(c2)cc2n3C(c3ccc4c(c3)OCCC4)Oc3cc(-c4cnc([C@@H]5CCCN5C(=O)[C@@H](NC(=O)OC)C5CCOCC5)[nH]4)cc(F)c3-2)[nH]1)c1ccccc1 (single isomer, unassigned) [Compound 54] | 11 pM | – | – | 2.4 pM | 4.9 pM | – | 8 pM | – |
| COC(=O)NC(C(=O)N1CCC[C@H]1c1ncc(-c2cc(F)c3c(c2)OC(c2ccc4c(c2)OCCC4)n2c-3cc3cc(-c4cnc([C@@H]5CCCN5C(=O)[C@@H](NC(=O)OC)C5CCOCC5)[nH]4)ccc32)[nH]1)C(C)(C)F (single isomer, unassigned) [Compound 87] | 133 pM | 2.3 pM | 528 pM | 3.4 pM | – | – | – | – |
| COC(=O)N[C@H](C(=O)N1CCC[C@H]1c1ncc(-c2cc(F)c3c(c2)OC(c2ccc4c(c2)OCC4)n2c-3cc3cc(-c4cnc([C@@H]5C[C@H]6C[C@H]6N5C(=O)[C@@H](NC(=O)OC)C(C)C)[nH]4)ccc32)[nH]1)C(C)C (single isomer, unassigned) [Compound 48] | 382 pM | – | 33 pM | 1.5 pM | 1.9 pM | – | – | – |
| COC(=O)N[C@H](C(=O)N1CCC[C@H]1c1ncc(-c2cc(F)c3c(c2)OC(c2ccc4c(c2)OCCC4)n2c-3cc3cc(-c4cnc([C@@H]5CCCN5C(=O)[C@@H](NC(=O)OC)C5CCOCC5)[nH]4)ccc32)[nH]1)C(C)C (single isomer, unassigned) [Compound 31] | 98 pM | – | 322 pM | 2.2 pM | 1.5 pM | – | – | – |

Reference: US10738062B2, “Chromane-substituted tetracyclic compounds and uses thereof for the treatment of viral diseases” (Merck Sharp & Dohme Corp., priority 2016, dated 2020)
